Legend:
[1] = refractive index (Na D-line) (dimensionless); xn = mol fraction of the nth substance listed; conditions: 99 kPa, Liquid, Abbe refractometer
[2] = relative permittivity at various frequencies (dimensionless); xn = mol fraction of the nth substance listed; conditions: 99 kPa, Liquid, Frequency=2 MHz, Parallel plate capacitor

CCC(C)Cl (configuration not stated) [2-chlorobutane] + CCCCCCC
Conditions | refractive index, 283.15 K | refractive index, 298.15 K | refractive index, 313.15 K | relative permittivity, 283.15 K | relative permittivity, 298.15 K | relative permittivity, 313.15 K
[1], x2 = 0 | 1.40226 | 1.39404 | 1.38562 | – | – | –
[1], x2 = 0.0483 | 1.40141 | 1.39319 | 1.3848 | – | – | –
[1], x2 = 0.1024 | 1.40056 | 1.39238 | 1.38401 | – | – | –
[1], x2 = 0.2021 | 1.39912 | 1.391 | 1.38268 | – | – | –
[1], x2 = 0.303 | 1.39778 | 1.3897 | 1.38144 | – | – | –
[1], x2 = 0.4031 | 1.3966 | 1.38859 | 1.38038 | – | – | –
[1], x2 = 0.5066 | 1.39562 | 1.38765 | 1.37951 | – | – | –
[1], x2 = 0.5998 | 1.39489 | 1.38699 | 1.3789 | – | – | –
[1], x2 = 0.7051 | 1.39429 | 1.38642 | 1.37841 | – | – | –
[1], x2 = 0.8055 | 1.39382 | 1.38603 | 1.37807 | – | – | –
[1], x2 = 0.9123 | 1.39337 | 1.38563 | 1.37773 | – | – | –
[1], x2 = 0.9433 | 1.39322 | 1.38549 | 1.37761 | – | – | –
[2], x2 = 0 | – | – | – | 9.323 | 8.652 | 8.07
[2], x2 = 0.0498 | – | – | – | 8.838 | 8.22 | 7.684
[2], x2 = 0.101 | – | – | – | 8.296 | 7.73 | 7.247
[2], x2 = 0.1985 | – | – | – | 7.191 | 6.75 | 6.373
[2], x2 = 0.3008 | – | – | – | 6.131 | 5.792 | 5.51
[2], x2 = 0.3994 | – | – | – | 5.252 | 5 | 4.774
[2], x2 = 0.503 | – | – | – | 4.471 | 4.283 | 4.1
[2], x2 = 0.6009 | – | – | – | 3.84 | 3.698 | 3.56
[2], x2 = 0.7053 | – | – | – | 3.268 | 3.165 | 3.063
[2], x2 = 0.8026 | – | – | – | 2.79 | 2.731 | 2.659
[2], x2 = 0.9027 | – | – | – | 2.352 | 2.309 | 2.276
[2], x2 = 0.9463 | – | – | – | 2.164 | 2.133 | 2.108

Source: the NIST ThermoML archive (doi:10.1016/j.jct.2015.03.001)
